Nine molecules from ChEMBL document CHEMBL5385944, “Hydrazyl hydroxycoumarins as new potential conquerors towards Pseudomonas aeruginosa” (Bioorg Med Chem Lett, 2024) can be followed below.

What all share (assay type): functional
Test [1] deals with Staphylococcus aureus. Nature of the test: Antibacterial activity against methicillin resistant Staphylococcus aureus assessed as reduction in bacterial growth by CLSI protocol based method.
The test system of test [2] is Staphylococcus aureus. As to the kind of experiment: Antibacterial activity against methicillin resistant Staphylococcus aureus 43300 assessed as reduction in bacterial growth by CLSI protocol based method.
In a further test the test system is Enterococcus faecalis. As to the kind of experiment: Antibacterial activity against Enterococcus faecalis assessed as reduction in bacterial growth by CLSI protocol based method.
Test [3] has as its system Staphylococcus aureus. As to the kind of experiment: Antibacterial activity against Staphylococcus aureus ATCC 25923 assessed as reduction in bacterial growth by CLSI protocol based method.
Test [4] concerns Staphylococcus aureus. As to the kind of experiment: Antibacterial activity against Staphylococcus aureus ATCC 29213 assessed as reduction in bacterial growth by CLSI protocol based method.
A further test has as its system Klebsiella pneumoniae. Nature of the test: Antibacterial activity against Klebsiella pneumoniae assessed as reduction in bacterial growth by CLSI protocol based method.
The subject of test [5] is Pseudomonas aeruginosa. Nature of the test: Antibacterial activity against Pseudomonas aeruginosa assessed as reduction in bacterial growth by CLSI protocol based method.
The subject of test [6] is Pseudomonas aeruginosa. Nature of the test: Antibacterial activity against Pseudomonas aeruginosa ATCC 27853 assessed as reduction in bacterial growth by CLSI protocol based method.
Test [7] concerns Pseudomonas aeruginosa. Nature of the test: Antibacterial activity against Pseudomonas aeruginosa ATCC 10104 assessed as reduction in bacterial growth by CLSI protocol based method.
Test [8] deals with Pseudomonas aeruginosa. Nature of the test: Antibacterial activity against Pseudomonas aeruginosa ATCC 90027 assessed as reduction in bacterial growth by CLSI protocol based method.
A further test has as its system Acinetobacter baumannii. Nature of the test: Antibacterial activity against Acinetobacter baumannii assessed as reduction in bacterial growth by CLSI protocol based method.
Another test relates to Escherichia coli. As to the kind of experiment: Antibacterial activity against Escherichia coli ATCC 25922 assessed as reduction in bacterial growth by CLSI protocol based method.

Converted amounts (≈) assume the structure as drawn.

Regarding `N=C(N)N/N=C/c1c(O)ccc2ccc(=O)oc12`, the MIC in the test with Staphylococcus aureus [1] was 512 µg/mL (≈ 2080 µM); with Staphylococcus aureus [2], 256 µg/mL (≈ 1040 µM); with Enterococcus faecalis, 32 µg/mL (≈ 130 µM); in the test with Staphylococcus aureus [3], 512 µg/mL (≈ 2080 µM); with Staphylococcus aureus [4] it was 64 µg/mL (≈ 260 µM); in the test on Klebsiella pneumoniae, 512 µg/mL (≈ 2080 µM). In addition, the MIC in the test with Pseudomonas aeruginosa [5] amounted to 4 µg/mL (≈ 16.2 µM); in the test on Pseudomonas aeruginosa [6] it was 256 µg/mL (≈ 1040 µM); in the test on Pseudomonas aeruginosa [7], 512 µg/mL (≈ 2080 µM); with Pseudomonas aeruginosa [8] it was 4 µg/mL (≈ 16.2 µM); in the test on Acinetobacter baumannii it was 256 µg/mL (≈ 1040 µM); in the test on Escherichia coli, 256 µg/mL (≈ 1040 µM).
Turning to `O=C(N/N=C/c1c(O)ccc2ccc(=O)oc12)c1ccccc1`, the MIC worked out at 256 µg/mL (≈ 830 µM) in the test with Staphylococcus aureus [1]; 512 µg/mL (≈ 1660 µM) with Staphylococcus aureus [2]; 128 µg/mL (≈ 415 µM) in the test with Enterococcus faecalis; 2 µg/mL (≈ 6.49 µM) with Staphylococcus aureus [3]; 512 µg/mL (≈ 1660 µM) in the test on Staphylococcus aureus [4]; 32 µg/mL (≈ 104 µM) in the test with Klebsiella pneumoniae. The MIC stood at 16 µg/mL (≈ 51.9 µM) with Pseudomonas aeruginosa [5]; 256 µg/mL (≈ 830 µM) with Pseudomonas aeruginosa [6]; 1 µg/mL (≈ 3.24 µM) with Pseudomonas aeruginosa [7]; 32 µg/mL (≈ 104 µM) in the test with Pseudomonas aeruginosa [8]; 512 µg/mL (≈ 1660 µM) in the test on Acinetobacter baumannii; 2 µg/mL (≈ 6.49 µM) in the test with Escherichia coli.
Turning to `O=c1ccc2ccc(O)c(/C=N/NS(=O)(=O)c3ccccc3)c2o1`, the MIC came to 512 µg/mL (≈ 1490 µM) with Staphylococcus aureus [1]; 512 µg/mL (≈ 1490 µM) in the test with Staphylococcus aureus [2]; 512 µg/mL (≈ 1490 µM) with Enterococcus faecalis; 512 µg/mL (≈ 1490 µM) with Staphylococcus aureus [3]; 32 µg/mL (≈ 92.9 µM) in the test with Staphylococcus aureus [4]; 2 µg/mL (≈ 5.81 µM) in the test on Klebsiella pneumoniae. For the same molecule, the MIC in the test on Pseudomonas aeruginosa [5], in the test with Pseudomonas aeruginosa [6], in the test with Pseudomonas aeruginosa [7], in the test with Pseudomonas aeruginosa [8], in the test on Acinetobacter baumannii and with Escherichia coli was 512 µg/mL (≈ 1490 µM) each time.
Consider `O=c1ccc2ccc(O)c(/C=N/Nc3ccc(S(=O)(=O)Nc4nccs4)cc3)c2o1`, for which the minimal inhibitory concentration (MIC) came out at 512 µg/mL (≈ 1160 µM) in the test on Staphylococcus aureus [1]; 512 µg/mL (≈ 1160 µM) with Staphylococcus aureus [2]; 512 µg/mL (≈ 1160 µM) with Enterococcus faecalis; 256 µg/mL (≈ 579 µM) in the test with Staphylococcus aureus [3]; 256 µg/mL (≈ 579 µM) in the test on Staphylococcus aureus [4]; 512 µg/mL (≈ 1160 µM) with Klebsiella pneumoniae. Also, the minimum inhibitory concentration (MIC) was 256 µg/mL (≈ 579 µM) with Pseudomonas aeruginosa [5]; 256 µg/mL (≈ 579 µM) in the test on Pseudomonas aeruginosa [6]; 512 µg/mL (≈ 1160 µM) in the test with Pseudomonas aeruginosa [7]; 256 µg/mL (≈ 579 µM) in the test on Pseudomonas aeruginosa [8]; 256 µg/mL (≈ 579 µM) in the test on Acinetobacter baumannii; 512 µg/mL (≈ 1160 µM) with Escherichia coli.
As for `Cc1cc(NS(=O)(=O)c2ccc(N/N=C/c3c(O)ccc4ccc(=O)oc34)cc2)no1`, the minimal inhibitory concentration (MIC) stood at 256 µg/mL (≈ 581 µM) in the test with Staphylococcus aureus [1]; 512 µg/mL (≈ 1160 µM) in the test with Staphylococcus aureus [2]; 256 µg/mL (≈ 581 µM) with Enterococcus faecalis; 256 µg/mL (≈ 581 µM) in the test with Staphylococcus aureus [3]; 512 µg/mL (≈ 1160 µM) with Staphylococcus aureus [4]; 256 µg/mL (≈ 581 µM) in the test with Klebsiella pneumoniae. The minimal inhibitory concentration (MIC) with Pseudomonas aeruginosa [5] came to 512 µg/mL (≈ 1160 µM); in the test with Pseudomonas aeruginosa [6] it was 512 µg/mL (≈ 1160 µM); with Pseudomonas aeruginosa [7] it was 256 µg/mL (≈ 581 µM); with Pseudomonas aeruginosa [8] it was 256 µg/mL (≈ 581 µM); in the test on Acinetobacter baumannii, 256 µg/mL (≈ 581 µM); in the test on Escherichia coli, 512 µg/mL (≈ 1160 µM).
Take `Nc1ncc(C(=O)N/N=C/c2c(O)ccc3ccc(=O)oc23)s1`: the MIC stood at 16 µg/mL (≈ 48.4 µM) with Staphylococcus aureus [1]; 64 µg/mL (≈ 194 µM) in the test on Staphylococcus aureus [2]; 128 µg/mL (≈ 387 µM) in the test with Enterococcus faecalis; 1 µg/mL (≈ 3.03 µM) with Staphylococcus aureus [3]; 256 µg/mL (≈ 775 µM) with Staphylococcus aureus [4]; 8 µg/mL (≈ 24.2 µM) in the test on Klebsiella pneumoniae. Further, the MIC in the test on Pseudomonas aeruginosa [5] was 256 µg/mL (≈ 775 µM); with Pseudomonas aeruginosa [6] it was 32 µg/mL (≈ 96.9 µM); in the test on Pseudomonas aeruginosa [7] it was 2 µg/mL (≈ 6.05 µM); with Pseudomonas aeruginosa [8], 1 µg/mL (≈ 3.03 µM); with Acinetobacter baumannii it was 1 µg/mL (≈ 3.03 µM); in the test with Escherichia coli it was 128 µg/mL (≈ 387 µM).
For `Cc1ccc(S(=O)(=O)N/N=C/c2c(O)ccc3ccc(=O)oc23)cc1`, the MIC came to 512 µg/mL (≈ 1430 µM) with Staphylococcus aureus [1]; 512 µg/mL (≈ 1430 µM) in the test on Staphylococcus aureus [2]; 512 µg/mL (≈ 1430 µM) in the test on Enterococcus faecalis; 512 µg/mL (≈ 1430 µM) in the test with Staphylococcus aureus [3]; 256 µg/mL (≈ 714 µM) in the test with Staphylococcus aureus [4]; 512 µg/mL (≈ 1430 µM) in the test on Klebsiella pneumoniae. The minimal inhibitory concentration (MIC) turned out to be 512 µg/mL (≈ 1430 µM) with Pseudomonas aeruginosa [5]; 512 µg/mL (≈ 1430 µM) in the test on Pseudomonas aeruginosa [6]; 512 µg/mL (≈ 1430 µM) in the test with Pseudomonas aeruginosa [7]; 512 µg/mL (≈ 1430 µM) in the test with Pseudomonas aeruginosa [8]; 512 µg/mL (≈ 1430 µM) in the test with Acinetobacter baumannii; 256 µg/mL (≈ 714 µM) with Escherichia coli.
Take `O=c1ccc2ccc(O)c(/C=N/NS(=O)(=O)Cc3ccccc3)c2o1`: the MIC was found to be 256 µg/mL (≈ 714 µM) in the test with Staphylococcus aureus [1]; 512 µg/mL (≈ 1430 µM) in the test on Staphylococcus aureus [2]; 128 µg/mL (≈ 357 µM) with Enterococcus faecalis; 38 µg/mL (≈ 106 µM) with Staphylococcus aureus [3]; 16 µg/mL (≈ 44.6 µM) in the test with Staphylococcus aureus [4]; 512 µg/mL (≈ 1430 µM) in the test on Klebsiella pneumoniae. Further, the MIC turned out to be 512 µg/mL (≈ 1430 µM) in the test on Pseudomonas aeruginosa [5]; 512 µg/mL (≈ 1430 µM) in the test with Pseudomonas aeruginosa [6]; 512 µg/mL (≈ 1430 µM) in the test with Pseudomonas aeruginosa [7]; 512 µg/mL (≈ 1430 µM) in the test on Pseudomonas aeruginosa [8]; 512 µg/mL (≈ 1430 µM) with Acinetobacter baumannii; 256 µg/mL (≈ 714 µM) in the test on Escherichia coli.
Take `O=c1ccc2ccc(O)c(/C=N/NS(=O)(=O)c3cccc4ccccc34)c2o1`: the MIC stood at 256 µg/mL (≈ 649 µM) with Staphylococcus aureus [1]; 16 µg/mL (≈ 40.6 µM) in the test on Staphylococcus aureus [2]; 512 µg/mL (≈ 1300 µM) in the test on Enterococcus faecalis; 512 µg/mL (≈ 1300 µM) in the test on Staphylococcus aureus [3]; 512 µg/mL (≈ 1300 µM) with Staphylococcus aureus [4]; 512 µg/mL (≈ 1300 µM) in the test with Klebsiella pneumoniae. In addition, the MIC with Pseudomonas aeruginosa [5] stood at 64 µg/mL (≈ 162 µM); with Pseudomonas aeruginosa [6], 256 µg/mL (≈ 649 µM); in the test on Pseudomonas aeruginosa [7] it was 128 µg/mL (≈ 325 µM); with Pseudomonas aeruginosa [8] it was 256 µg/mL (≈ 649 µM); in the test with Acinetobacter baumannii it was 256 µg/mL (≈ 649 µM); in the test with Escherichia coli, 256 µg/mL (≈ 649 µM).

What is called MIC is the lowest concentration found to suppress growth.
